From patent publication US7151090B2, “Methods for enhancing graft survival by modulating heme oxygenase activity” (priority 1998, dated 2006)
“Also recorded” adds a separate entry of the source.

Columns and labels:
EL4 cells = assay: Cytotoxic T-cell activity, four hour chromium release assay; type: cell-based, mouse; conditions: for target cell lysis: at about 10 μg/ml, cytotoxic T-cells, E:T 20:1, four hour incubation; for chromium release from target cells: at concentrations higher than about 10 μg/ml, compared with spontaneous release without compound
Description: Cytotoxic T-cell Activity: To assay the effect of metalloprotoporphyrins on cytotoxic T-cell activity, CBA to B6 effectors were generated following a five day culture of 3×10^6 CBA spleen cells with 3×10^6 mitomycin-treated B6 spleen cells in wells of a 24-well plate (Nunclone, Delta, Nunc, Denmark) in R-10 medium. Effector cells were then harvested and washed. (H2^b), a mouse lymphoma induced in C57BL/6N was used as target cells. EL4 cells were routinely subcultured once every three days. They were then collected, washed, and labeled with 0.1 mCi of sodium chromate-51 in 200 μl for one hour at 37° C. Effector (E) and target (t) cells were added into V-shaped tissue culture plates (Nunc, Denmark) at E:T of 20:1. Metalloprotoporphyrins were diluted to the working concentrations with PBS and added at the beginning of the four hour incubation period. For the determination of maximal release, 1% triton X-100 was added to separate wells. Plates were centrifuged for three minutes to increase cellular contact before the four hour incubation period. After incubation 75 μl supernatant from each well was collected and the amount of^51Cr released was counted using a TopCount scintillation counter. The degree of cell lysis was calculated using the formula below: […]

[1] = system: C57B1/6 heart allografts in CBA recipients; assay: Heterotopic heart transplantation, allograft survival; type: in vivo, mouse; conditions: control 7.8±1.1
Description: FIG. 2 is a graph showing the prolongation of heart allograft survival following metalloprotoporphyrin therapy. CBA recipients of C57B1/6 heart allografts were either untreated or treated as follows: Zn-protoporphyrin group (n=4); Zn-protoporphyrin was administered at 10 mg/kg/day on day −1 before transplantation and on days 1–9 post transplantation. Co-protoporphyrin group (n=4); Co-protoporphyrin was administered at 20 mg/kg/day on days 0–5 post-transplantation; Zn-protoporphyrin pretreatment group (n=3); heart donors were treated one day before transplantation with 50 mg/kg Zn-protoporphyrin.
Heterotopic Heart Transplantation: Abdominal heterotopic heart transplantation was performed as previously described by Ono and Lindsey, J. Thorac. Cardiovasc. Surg. 7:225–229 (1969) using […] donors and CBA recipients. Metalloporphyrin was administered intraperitoneally using various protocols. Heart allograft survival was monitored daily by direct palpation, and rejection was defined as termination of palpable cardiac contractility. Results are expressed as percentage graft survival at a given postoperative period. Statistical analysis was performed with the Mann-Whitney test.

[2] = system: fatty liver isografts from obese Zucker donors in lean Zucker recipients; assay: Syngeneic orthotopic liver transplant (OLT) model, survival and sGOT; type: in vivo, rat
Description: Syngeneic Orthotopic Liver Transplant (OLT) model: Syngeneic liver transplants were performed using fatty livers that were harvested from obese Zucker rats and stored for 4 hours at 4° C. in University of Wisconsin (UW) solution before being transplanted into lean Zucker recipients. OLTs were performed with revascularization without hepatic artery reconstruction. There were 2 treatment groups. In the first group, obese Zucker rats (n=10) received CoPP (5 mg/kg intraperitoneally) 24 hours before the procurement. Group 2 donors (n=11) were treated with Ad-HO-1 (2.4×10^9 pfu intravenously) 24 hours before harvest. OLT recipients were followed for survival and serum glutamic-oxaloacetic trans-aminase (sGOT) levels. Separate groups of rats (n=2/group) were sacrificed at 1, 7, 14, and 100 days after OLT, and liver samples were collected for H&E/immunohistology staining and Western blot analysis.

liver isografts [3] = assay: OLT liver histology, modified Suzuki's criteria; type: in vivo, rat; conditions: day 1 after transplant; graded 0 to 4; control 3.33±0.58
Description: Histology and immunohistochemistry: Liver specimens were fixed in a 10% buffered formalin solution and embedded in paraffin. Sections were made at 4 μm and stained with H&E. The previously published Suzuki's criteria (Suzuki et al., Transplantation 55:1265–1272 (1993)), […] were modified to evaluate the histologic severity of I/R injury in the OLT model. In this classification sinusoidal congestion, hepatocyte necrosis, and ballooning degeneration are graded from 0 to 4. No necrosis, congestion or centrilobular ballooning is given a score of 0, whereas severe congestion and ballooning degeneration as well as greater than 60% lobular necrosis is given a value of 4.

liver isografts [4] = assay: OLT immunohistochemistry for mononuclear cell (MNC) infiltration; type: in vivo, rat
Description: OLTs were examined serially by immunohistochemistry for mononuclear cell (MNC) infiltration. Briefly, liver tissue was embedded in Tissue Tek OCT compound (Miles Inc., Elkhart, Ind., USA), snap frozen in liquid nitrogen, and stored at −70° C. Cryostat sections (5 μm) were fixed in acetone, and then endogenous peroxidase activity was inhibited with 0.3% H2O2 in PBS. Normal heat-inactivated donkey serum (10%) was used for blocking. Appropriate primary mouse Ab against rat T cells (R73) and monocytes/macrophages (ED1) (Harlan Bioproducts for Science, Indianapolis, Ind., USA) were added at optimal dilutions. Bound primary Ab was detected using biotinylated donkey anti-mouse IgG and streptavidin peroxidase-conjugated complexes (DAKO Corp., Carpinteria, Calif., USA). The control sections were performed by replacing the primary Ab with either dilution buffer or normal mouse serum. The peroxidase reaction was developed with 3,3-diaminobenzidine tetrahydrochloride (Sigma Chemical Co., St. Louis, Mo., USA). The sections were evaluated blindly by counting the labeled cells in triplicates in 10 high-power fields.

HO-1 [5] = assay: Western analysis of HO-1 expression in the OLT model; type: in vivo, rat; conditions: day 1, 7, 14 and 100 after transplant; densitometer; untreated 0.09–0.85 AU
Description: (§1) Western blots: Protein was extracted from liver tissue samples with PBSTDS buffer (50 mM Tris, 150 mM NaCl, 0.1% SDS, 1% sodium deoxycholate, and 1% Triton X-100, pH 7.2). Proteins (30 μg/sample) in SDS-loading buffer (50 mM Tris, pH 7.6, 10% glycerol, 1% SDS) were subjected to 12% SDS-PAGE and transferred to nitrocellulose membrane (Bio-Rad Laboratories Inc., Hercules, Calif., USA). The gel was then stained with Coomassie blue to document equal protein loading. The membrane was blocked with 3% dry milk and 0.1% Tween-20 (Amersham, Arlington Heights, Ill., USA) in PBS and incubated with rabbit anti-rat HO-1 polyclonal Ab (Sangstat Corp., San Francisco, Calif., USA). The filters were washed and then incubated with horseradish peroxidase donkey anti-rabbit Ab (Amersham Life Sciences, Arlington Heights, Ill., USA). Relative quantities of HO-1 protein were determined using a densitometer (Kodak Digital Science 1D Analysis Software, Rochester, N.Y., USA) and results were expressed in absorbance units (AU).

[6] = system: fatty livers from obese Zucker rats; assay: Ex vivo steatotic rat liver cold ischemia model followed by reperfusion; type: in vivo; conditions: for bile production / portal blood flow: 2-hour reperfusion after 6 hours cold ischemia; for bile production / portal blood flow / I/R-induced hepatocyte injury measured by sGOT release: compared with untreated controls; for I/R-induced hepatocyte injury measured by sGOT release: 2-hour reperfusion
Description: Animals, metalloporphyrins, and adenovirus constructs are described in Example 3. Ex vivo cold ischemia model: Genetically obese Zucker rats underwent ether anesthesia and systemic heparinization. […] Control livers from untreated obese Zucker rats were stored for 6 hours at 4° C. in UW solution (n=6). There were 4 treatment groups. Group 1 animals received CoPP, the HO-1 inducer (5 mg/kg intraperitoneally) 24 hours before liver harvest (n=6). Group 2 rats were infused with Ad-HO-1 or Ad-β Gal (2.4×10^9 plaque-forming units (pfu) […]) 24 to 48 hours before the procurement (n=4–10). Group 3 donors were treated with Ad-HO-1 (2.4×10^9 pfu intravenously) at day-2, followed 1 day later by infusion of ZnPP (20 mg/kg intraperitoneally), the HO-1 inhibitor (n=4). Group 4 rats received ZnPP alone (20 mg/kg intraperitoneally) at 24 hours before harvest (n=4). All livers were procured at day 0, stored for 6 hours at 4° C. in UW solution, and then perfused on an isolated perfusion rat liver apparatus, as described. The Zucker livers were perfused ex vivo for 2 hours while temperature, pH, and inflow pressure were kept constant. Portal vein blood flow and pressure were recorded every 15 minutes, whereas bile output was monitored every 30 minutes. Portal vein blood flow was adjusted to maintain portal pressures of 13 to 18 cm H2O. Blood was collected at 30-minute intervals and serum glutamic-oxaloacetic trans-aminase (sGOT) levels were measured using an autoanalyzer from ANTECH Diagnostics (Irvine, Calif., USA). Following 2 hours of perfusion, a portion of the liver was snap-frozen for mRNA extraction and Western blot analysis of HO-1 expression; the remaining tissue samples were fixed in formalin for hematoxylin and eosin (H&E) staining.

[7] = system: fatty livers from obese Zucker rats; assay: Liver histology in the ex vivo cold ischemia model, Banff's criteria; set-up: species or system rat; conditions: after 2 hours perfusion; graded 1 to 4; untreated 3.0±0.63
Description: Histology and immunohistochemistry: Liver specimens were fixed in a 10% buffered formalin solution and embedded in paraffin. Sections were made at 4 μm and stained with H&E. The histologic severity of I/R injury in the ex vivo perfusion model was graded using International Banff Criteria. Using these criteria, lobular disarray and ballooning changes are graded from 1 to 4, where no change is given a score of 1 and severe disarray or ballooning changes is given a score of 4.

HO-1 [8] = assay: Western analysis of HO-1 expression in the ex vivo I/R injury model; set-up: species or system rat; conditions: at completion of 2-hour perfusion period; densitometer; untreated 0.11 AU
Description: as §1
Western blots were performed as described in Example 3.

HO-1 [9] = assay: Rat sandwich ELISA of HO-1 protein in liver; type: in vivo; conditions: 5 mg/kg intraperitoneally
Description: To test that stress-induced upregulation of HO-1 reduces I/R insult in steatotic rat livers, we have chosen 2 distinct HO-1-inducing approaches. First, donor rats were pretreated with CoPP (5 mg/kg intraperitoneally), a regimen that increases HO-1 protein levels in rat livers by 250% in a rat sandwich ELISA. Second, because infusion of CoPP in high doses may modulate other heme enzymes such as nitric oxide synthase (NOS) and guanylate cyclase, we have also used Ad-based gene delivery to provide “proof of principle” and to selectively upregulate HO-1 expression in prospective liver donors. Western blot analysis confirmed increased HO-1 protein expression in the ex vivo I/R model using Ad-HO-1-transduced rat steatotic livers.

[10] = recipients treated i.p., Zn 10 mg/kg/day day -1 and days 1-9, Co 20 mg/kg/day days 0-5

`C=CC1=C(C)c2cc3[n-]c(cc4nc(cc5[n-]c(cc1n2)c(C)c5CCC(=O)[O-])C(CCC(=O)[O-])=C4C)c(C)c3C=C.[Co+2].[H+].[H+]` [CoPP, cobalt-protoporphyrin] was tested, and the target cell lysis (EL4 cells) was 0%, the “chromium release from target cells” value (EL4 cells) was “lower than the spontaneous release” and the “heart allograft survival (mean survival time)” value (“heart allograft survival” below) [1, 10] was 10.5±0.6 days. The sGOT levels ([2]; day 1 post transplant, control 2695) was 1838 IU/L, the sGOT levels ([2]; day 7 post transplant, control 1570) was 477 IU/L and the sGOT levels ([2]; day 14 post transplant, control 460) was 198 IU/L. The “recipients still alive at well over 100 days after transplant” value ([2]; lean Zucker rats engrafted with livers from treated obese Zucker donors) was 8 out of 10, the Suzuki score (liver isografts [3]) was 1.33±0.70 and the “intragraft T cells” value (liver isografts [4]; day 1, labeled cells counted in 10 high-power fields, control 9±3) was 2±1. The intragraft monocytes/macrophages (liver isografts [4]; day 1, labeled cells counted in 10 high-power fields, control 136±31) was 71±12, the “hepatocyte architecture and MNC infiltrate of long-term liver grafts” value (liver isografts [4]; grafts harvested at day 100) was “good preservation of hepatocyte architecture and only mild MNC infiltrate” and the HO-1 expression (HO-1 [5]) was 1.21–2.14 AU. For the same compound, the bile production [6] was “significantly increased; also recorded: significantly higher”, the portal blood flow [6] was “significantly improved” and the “I/R-induced hepatocyte injury measured by sGOT release” value [6] was “markedly reduced”. The sGOT concentrations ([6]; at 60 minutes of reperfusion, untreated controls 102±8.23) was 53.3±8.23 IU/L, the “Banff's score” value [7] was 1.21±0.39 and the HO-1 expression (HO-1 [8]) was 2.46 AU. For the same compound, the “increase of HO-1 protein levels in rat livers” value (HO-1 [9]) was 250%.
With `C=CC1=C(C)c2cc3[n-]c(cc4nc(cc5[n-]c(cc1n2)c(C)c5C=C)C(C)=C4CCC(=O)O)c(CCC(=O)O)c3C.[Zn+2]` [ZnPP, Zinc-protoporphyrin] the target cell lysis (EL4 cells) was 0%, the “chromium release from target cells” value (EL4 cells) was “lower than the spontaneous release” and the “heart allograft survival” value ([1]; heart donors pre-treated one day before transplantation (50 mg/kg)) was 10.3±1.5 days. For the same compound, the “heart allograft survival” value [1, 10] was 12.0±2.4 days, the bile production [6] was “diminished” and the portal blood flow [6] was “diminished”. The “I/R-induced hepatocyte injury measured by sGOT release” value [6] was “augmented hepatocyte injury comparable with otherwise untreated fatty controls”, the “Banff's score” value [7] was 2.86±0.12 and the HO-1 expression (HO-1 [8]) was 0.12 AU.
